Data set [1] concerns the target T1, porcine pancreatic lipase (PPL) (Sus scrofa, UniProt P00591).
T1 construct: by porcine pancreatic lipase (from pancreatin); purchased Sigma-Aldrich P7585; host or cells: porcine pancreas extract (pancreatin)
T1 sequence (P00591 1-450): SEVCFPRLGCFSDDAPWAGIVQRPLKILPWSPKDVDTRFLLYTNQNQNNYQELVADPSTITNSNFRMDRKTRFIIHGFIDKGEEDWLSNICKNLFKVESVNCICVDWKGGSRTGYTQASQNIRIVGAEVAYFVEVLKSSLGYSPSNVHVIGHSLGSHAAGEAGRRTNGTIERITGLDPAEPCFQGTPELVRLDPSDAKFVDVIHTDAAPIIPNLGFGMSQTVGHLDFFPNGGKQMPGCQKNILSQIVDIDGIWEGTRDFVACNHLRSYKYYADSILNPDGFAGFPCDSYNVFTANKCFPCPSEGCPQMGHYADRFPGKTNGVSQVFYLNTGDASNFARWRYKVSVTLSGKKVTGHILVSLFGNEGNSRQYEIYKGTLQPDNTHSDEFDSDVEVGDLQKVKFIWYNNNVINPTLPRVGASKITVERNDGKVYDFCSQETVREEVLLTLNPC
T1 sequence (P02703 23-112 partner): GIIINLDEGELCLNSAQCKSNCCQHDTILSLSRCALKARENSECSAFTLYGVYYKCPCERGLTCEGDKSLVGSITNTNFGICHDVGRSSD
The experiment in a line: In vitro digestion in simulated intestinal fluid (SIF), pH-stat. To be noted: SIF alone; 200 mg fat emulsion, pH 6.8, 37° C. Format: in vitro ADME.
Method: (§1) The lipid emulsion (2 mL) containing 200 mg of fat was subjected to gastrointestinal in vitro lipolysis. […] For gastric digestion, the sample was incubated for 90 minutes with 8.5 mL of simulated gastric fluid (SGF), which consisted of 150 mM NaCl, 450 U/mL pepsin, 18 U/mL rabbit gastric lipase at 37° C. and a pH of 5.5.
The intestinal digestion step was performed in the pH stat where the pH was kept constant at 6.8 by addition of NaOH (0.05 M). […] The intestinal digestion step starts when the temperature reaches 37±0.5° C. The pH was adjusted to pH 6.8 and after incubation of two minutes at this pH and temperature, a pancreatin solution (5 mM tris, 150 mM NaCl at pH 6.8) was added. […] During the intestinal phase of digestion, the kinetics of digestion were followed using a pH-stat (TIM856, Radiometer) technique and expressed as titratable acid (rather than fatty acid) that was calculated by the equation: […]
(§2) Since the digestion of dietary lipids involves lipases of both gastric and intestinal origin, lipid digestibility was assessed using two digestion models i) simulated intestinal fluid (SIF) with porcine pancreatic lipase (PPL) and ii) sequential digestion in simulated gastric fluid (SGF) with rabbit gastric lipase (RGL) followed by simulated intestinal fluid (SIF) with porcine pancreatic lipase (PPL).

In data set [2] the test system is rabbit gastric lipase (RGL) followed by porcine pancreatic lipase (PPL). The experiment in a line: Sequential in vitro digestion SGF followed by SIF, pH-stat. Format: in vitro ADME.
Method: as §1
The intestinal digestion step was performed in the pH stat where the pH was kept constant at 6.8 by addition of NaOH (0.05 M). […] The intestinal digestion step starts when the temperature reaches 37±0.5° C. The pH was adjusted to pH 6.8 and after incubation of two minutes at this pH and temperature, a pancreatin solution (5 mM tris, 150 mM NaCl at pH 6.8) was added. The final composition of the intestinal fluid was 10 mM CaCl2, 12 mM mixed bile salts, 0.75 mM phospholipid, 150 mM NaCl and 4 mM tris(hydroxymethyl)aminomethane buffer. The intestinal digestion step was carried out for 3 hours in a titration manager from Radiometer. During the intestinal phase of digestion, the kinetics of digestion were followed using a pH-stat (TIM856, Radiometer) technique and expressed as titratable acid (rather than fatty acid) that was calculated by the equation:
TA: Total titratable acid released, mmol; VNaOH: volume of NaOH used to titrate the released acid in 3 h, m L.
as §2

The values below come from patent publication US20220226272A1, “DIETARY BUTYRATE AND ITS USES” (SOCIETE DES PRODUITS NESTLE S.A., priority 2019, published 2022).

The structures appear in SMILES notation.

For `CCCC(=O)OCC(COC(=O)CCC)OC(=O)CCC` [tributyrin], the “initial rate of lipolysis” value in data set [1] was 223 ± 59 µmol/min. In addition, the “initial lipolysis rate in SIF compartment” value in data set [2] (SGF-SIF sequential digestion, 200 mg fat emulsion) came out at 44.1 ± 8.8 µmol/min. The “hydrolysis in the stomach (gastric lipolysis), in words” value in data set [2] (gastric compartment of the model) is reported as “extensive hydrolysis”. Further, the “lipolysis by gastric lipase” value in data set [2] (indicated by decreased total fatty acid release in SIF after RGL pre-exposure) is recorded as around 60%.
